{
  "source": "PubChem BioAssay AID1963979",
  "about": "(Molecular Pharmacology Branch, DTP, NCI, 2024)",
  "tested_on": "361931-004-R-J1-PDC multicell spheroid viability",
  "assay": "Anticancer human tumor 361931-004-R-J1-PDC patient-derived colon adenocarcinoma cell line growth inhibition [PI3K]",
  "conditions": "for pIC50: curve of first compound; for viability, T/C: stronger effect = lower value",
  "how_it_was_run": "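Agents were dosed from a top concentration near clinical Cmax (otherwise 10 microM) in half-log decrements, alone or combined with PI3K inhibitors. The spheroids contain tumor cells plus endothelial (HUVEC) and MSC stroma; viability is measured.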",
  "note": "pIC50: −log10 of the molar value.",
  "data": [
    {"molecule": "CC1(C)CCC(CN2CCN(c3ccc(C(=O)NS(=O)(=O)c4ccc(NCC5CCOCC5)c([N+](=O)[O-])c4)c(Oc4cnc5[nH]ccc5c4)c3)CC2)=C(c2ccc(Cl)cc2)C1", "note": "+ CC(Nc1ncnc2nc[nH]c12)c1cc2cccc(Cl)c2c(=O)n1-c1ccccc1;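 also: spheroids exposed to agents for seven days before readout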", "values": [
      {"measurement": "pIC50", "setting": "second compound 0.0316 µM", "result": 5.27},
      {"measurement": "pIC50", "setting": "second compound 0.1 µM", "result": 5.30},
      {"measurement": "pIC50", "setting": "second compound 0.316 µM", "result": 5.30},
      {"measurement": "pIC50", "setting": "second compound 1 µM", "result": 5.29},
      {"measurement": "pIC50", "setting": "second compound 3.16 µM", "result": 5.28},
      {"measurement": "pIC50", "setting": "second compound 10 µM", "result": 5.30},
      {"measurement": "viability, T/C", "setting": "second compound 0.0316 µM, first compound 0.0316 µM", "result": 105, "unit": "%"},
      {"measurement": "viability, T/C", "setting": "second compound 0.0316 µM, first compound 0.1 µM", "result": 98.3, "unit": "%"},
      {"measurement": "viability, T/C", "setting": "second compound 0.0316 µM, first compound 0.316 µM", "result": 104, "unit": "%"},
      {"measurement": "viability, T/C", "setting": "second compound 0.0316 µM, first compound 1 µM", "result": 93.4, "unit": "%"},
      {"measurement": "viability, T/C", "setting": "second compound 0.0316 µM, first compound 3.16 µM", "result": 89.4, "unit": "%"},
      {"measurement": "viability, T/C", "setting": "second compound 0.0316 µM, first compound 10 µM", "result": 3.37, "unit": "%"},
      {"measurement": "viability, T/C", "setting": "second compound 0.1 µM, first compound 0.0316 µM", "result": 110, "unit": "%"},
      {"measurement": "viability, T/C", "setting": "second compound 0.1 µM, first compound 0.1 µM", "result": 95.2, "unit": "%"},
      {"measurement": "viability, T/C", "setting": "second compound 0.1 µM, first compound 0.316 µM", "result": 97.7, "unit": "%"},
      {"measurement": "viability, T/C", "setting": "second compound 0.1 µM, first compound 1 µM", "result": 102, "unit": "%"},
      {"measurement": "viability, T/C", "setting": "second compound 0.1 µM, first compound 3.16 µM", "result": 81.2, "unit": "%"},
      {"measurement": "viability, T/C", "setting": "second compound 0.1 µM, first compound 10 µM", "result": 3.38, "unit": "%"},
      {"measurement": "viability, T/C", "setting": "second compound 0.316 µM, first compound 0.0316 µM", "result": 108, "unit": "%"},
      {"measurement": "viability, T/C", "setting": "second compound 0.316 µM, first compound 0.1 µM", "result": 97.2, "unit": "%"},
      {"measurement": "viability, T/C", "setting": "second compound 0.316 µM, first compound 0.316 µM", "result": 106, "unit": "%"},
      {"measurement": "viability, T/C", "setting": "second compound 0.316 µM, first compound 1 µM", "result": 106, "unit": "%"},
      {"measurement": "viability, T/C", "setting": "second compound 0.316 µM, first compound 3.16 µM", "result": 81.7, "unit": "%"},
      {"measurement": "viability, T/C", "setting": "second compound 0.316 µM, first compound 10 µM", "result": 3.3, "unit": "%"},
      {"measurement": "viability, T/C", "setting": "second compound 1 µM, first compound 0.0316 µM", "result": 103, "unit": "%"},
      {"measurement": "viability, T/C", "setting": "second compound 1 µM, first compound 0.1 µM", "result": 99.2, "unit": "%"},
      {"measurement": "viability, T/C", "setting": "second compound 1 µM, first compound 0.316 µM", "result": 106, "unit": "%"},
      {"measurement": "viability, T/C", "setting": "second compound 1 µM, first compound 1 µM", "result": 102, "unit": "%"},
      {"measurement": "viability, T/C", "setting": "second compound 1 µM, first compound 3.16 µM", "result": 84, "unit": "%"},
      {"measurement": "viability, T/C", "setting": "second compound 1 µM, first compound 10 µM", "result": 3.62, "unit": "%"},
      {"measurement": "viability, T/C", "setting": "second compound 3.16 µM, first compound 0.0316 µM", "result": 102, "unit": "%"},
      {"measurement": "viability, T/C", "setting": "second compound 3.16 µM, first compound 0.1 µM", "result": 109, "unit": "%"},
      {"measurement": "viability, T/C", "setting": "second compound 3.16 µM, first compound 0.316 µM", "result": 96, "unit": "%"},
      {"measurement": "viability, T/C", "setting": "second compound 3.16 µM, first compound 1 µM", "result": 96.5, "unit": "%"},
      {"measurement": "viability, T/C", "setting": "second compound 3.16 µM, first compound 3.16 µM", "result": 86.8, "unit": "%"},
      {"measurement": "viability, T/C", "setting": "second compound 3.16 µM, first compound 10 µM", "result": 3.29, "unit": "%"},
      {"measurement": "viability, T/C", "setting": "second compound 10 µM, first compound 0.0316 µM", "result": 109, "unit": "%"},
      {"measurement": "viability, T/C", "setting": "second compound 10 µM, first compound 0.1 µM", "result": 99.6, "unit": "%"},
      {"measurement": "viability, T/C", "setting": "second compound 10 µM, first compound 0.316 µM", "result": 107, "unit": "%"},
      {"measurement": "viability, T/C", "setting": "second compound 10 µM, first compound 1 µM", "result": 107, "unit": "%"},
      {"measurement": "viability, T/C", "setting": "second compound 10 µM, first compound 3.16 µM", "result": 80.1, "unit": "%"},
      {"measurement": "viability, T/C", "setting": "second compound 10 µM, first compound 10 µM", "result": 3.09, "unit": "%"}
    ]}
  ]
}
